In patent US9120770B2, “Substituted pyridine and pyrazine compounds as PDE4 inhibitors” (DART NEUROSCIENCE (CAYMAN) LTD., priority 2013, dated 2015) one finds EC50 data, which are given here for 42 molecules.

A value given as a limit tells only on which side of the number the result lay.

Sequence of PDE4D3 (Q08499 1-673 isoform Q08499-2): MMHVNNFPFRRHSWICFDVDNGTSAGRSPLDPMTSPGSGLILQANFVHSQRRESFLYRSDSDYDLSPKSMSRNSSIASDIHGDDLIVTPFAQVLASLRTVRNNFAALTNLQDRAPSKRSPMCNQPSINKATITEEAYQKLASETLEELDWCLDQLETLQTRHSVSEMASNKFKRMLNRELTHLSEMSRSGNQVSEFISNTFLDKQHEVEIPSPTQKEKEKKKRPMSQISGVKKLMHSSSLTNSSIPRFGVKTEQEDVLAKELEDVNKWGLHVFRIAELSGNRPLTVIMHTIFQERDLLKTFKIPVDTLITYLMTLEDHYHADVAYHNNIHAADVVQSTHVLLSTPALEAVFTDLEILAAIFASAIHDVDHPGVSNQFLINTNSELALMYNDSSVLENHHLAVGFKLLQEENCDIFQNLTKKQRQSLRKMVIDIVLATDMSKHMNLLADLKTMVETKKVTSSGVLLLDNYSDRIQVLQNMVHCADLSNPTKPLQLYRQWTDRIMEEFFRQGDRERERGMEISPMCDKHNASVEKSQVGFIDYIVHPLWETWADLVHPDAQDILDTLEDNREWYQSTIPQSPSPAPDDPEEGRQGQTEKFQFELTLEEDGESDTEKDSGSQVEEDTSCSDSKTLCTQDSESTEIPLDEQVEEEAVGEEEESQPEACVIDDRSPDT

This experiment concerns the target PDE4D3 (Homo sapiens, UniProt Q08499).
`CCOc1ncc(Cn2ncc(Cl)c2N)cc1-c1cccc(Cl)c1` [Example 235, 4-Chloro-1-{[5-(3-chlorophenyl)-6-ethoxypyridin-3-yl]methyl}-1H-pyrazol-5-amine]: the EC50 fell in the range of 1000 to 10000 nM.

Take `COc1ncc(Cn2cncn2)cc1-c1cccc(C)c1` [Example 5, 2-Methoxy-3-(3-methylphenyl)-5-(1H-1,2,4-triazol-1-ylmethyl)pyridine]: the EC50 fell in the range of 100 to 1000 nM.

`COc1ncc(Cc2cnc(N)nc2)cc1-c1cccc(F)c1` [Example 38, 5-{[5-(3-Fluorophenyl)-6-methoxypyridin-3-yl]methyl}pyrimidin-2-amine] gave an EC50 of less than 100 nM.

On to `COc1ncc(Cn2ccnc2)nc1-c1cccc(Cl)c1` [Example 183, 3-(3-Chlorophenyl)-5-(1H-imidazol-1-ylmethyl)-2-methoxypyrazine], for which the EC50 is less than 100 nM.

`COc1ncc(Cn2ccnn2)cc1-c1cccc(Cl)c1` [Example 262, 3-(3-Chlorophenyl)-2-methoxy-5-(1H-1,2,3-triazol-1-ylmethyl)pyridine] came in with an EC50 of less than 100 nM.

For the molecule `OCc1ncn(Cc2cnc(OC(F)F)c(-c3cccc(Cl)c3)c2)n1` [Example 200, (1-{[5-(3-Chlorophenyl)-6-(difluoromethoxy)pyridin-3-yl]methyl}-1H-1,2,4-triazol-3-yl)methanol], the EC50 was 100 to 1000 nM.

With `CNc1ncn(Cc2cnc(OC(F)F)c(-c3cccc(Cl)c3)c2)n1` [Example 238, 1-{[5-(3-Chlorophenyl)-6-(difluoromethoxy)pyridin-3-yl]methyl}-N-methyl 1H-1,2,4-triazol-3-amine], the EC50 was 100 to 1000 nM.

The molecule `COc1ncc(Cn2ccccc2=O)cc1-c1cccc(Cl)c1` [Example 177, 1-{[5-(3-Chlorophenyl)-6-methoxypyridin-3-yl]methyl}-1,2-dihydropyridin-2-one] gave an EC50 of 1000 to 10000 nM.

`COc1ncc(Cc2cncs2)cc1-c1cccc(Cl)c1` [Example 65, 3-(3-Chlorophenyl)-2-methoxy-5-(1,3-thiazol-5-ylmethyl)pyridine] showed a 50% effective concentration (EC50) of less than 100 nM.

`COc1ncc(Cc2ccc(C(C)(C)O)cc2)cc1-c1cccc(Cl)c1` [Example 250, 2-(4-{[5-(3-Chlorophenyl)-6-methoxypyridin-3-yl]methyl}phenyl)propan-2-ol] displayed a half-maximal effective concentration (EC50) of 100 to 1000 nM.

The molecule `CCOc1cccc(-c2cc(Cn3cnc(N)n3)cnc2OC)c1` [Example 224, 1-{[5-(3-Ethoxyphenyl)-6-methoxypyridin-3-yl]methyl}-1H-1,2,4-triazol-3-amine] yielded a concentration giving a half-maximal response (EC50) of 100 to 1000 nM.

`CCCOc1ccc(Cc2cnc(OC(F)F)c(-c3cccc(Cl)c3)c2)cn1` [Example 51, 3-(3-Chlorophenyl)-2-(difluoromethoxy)-5-[(6-propoxypyridin-3-yl)methyl]pyridine] came in with an EC50 of 100 to 1000 nM.

As for `COc1ncc(Cc2ccc(C(N)=O)cc2)cc1-c1cccc(Cl)c1` [Example 27, 4-{[5-(3-Chlorophenyl)-6-methoxypyridin-3-yl]methyl}benzamide], the EC50 is less than 100 nM.

Molecule `CCOc1ncc(Cn2cnc(N)n2)nc1-c1cccc(OC(F)F)c1` [Example 237, 1-((6-(3-(Difluoromethoxy)phenyl)-5-ethoxypyrazin-2-yl)methyl)-1H-1,2,4-triazol-3-amine] gave a concentration for a half-maximal effect (EC50) of 1000 to 10000 nM.

In turn, `COc1ncc(Cc2cnc(C(N)=O)nc2)nc1-c1cccc(Cl)c1` [Example 123, 5-{[6-(3-Chlorophenyl)-5-methoxypyrazin-2-yl]methyl}pyrimidine-2-carboxamide] returned a half-maximal effective concentration (EC50) of less than 100 nM.

Molecule `CCOc1cccc(-c2cc(Cn3cnc(CO)n3)cnc2OC(F)F)c1` [Example 204, (1-{[6-(Difluoromethoxy)-5-(3-ethoxyphenyl)pyridin-3-yl]methyl}-1H-1,2,4-triazol-3-yl)methanol] had a 50% effective concentration (EC50) of less than 100 nM.

The molecule `FC(F)Oc1ncc(Cc2cnoc2)cc1-c1cccc(Cl)c1` [Example 97, 3-(3-Chlorophenyl)-2-(difluoromethoxy)-5-(1,2-oxazol-4-ylmethyl)pyridine] displayed an EC50 of 100 to 1000 nM.

`O=C(O)c1ccc(Cc2cnc(OC(F)F)c(-c3cccc(Cl)c3)c2)cn1` [Example 54, 5-{[5-(3-Chlorophenyl)-6-(difluoromethoxy)pyridin-3-yl]methyl}pyridine-2-carboxylic acid] showed an EC50 of 1000 to 10000 nM.

The molecule `CNC(=O)c1ccc(Cc2cnc(OC(F)F)c(-c3cccc(Cl)c3)c2)cn1` [Example 244, 5-{[5-(3-Chlorophenyl)-6-(difluoromethoxy)pyridin-3-yl]methyl}-N-methylpyridine-2-carboxamide] registered a concentration for a half-maximal effect (EC50) of 100 to 1000 nM.

As for `OCc1cncn1Cc1cnc(OC(F)F)c(-c2cccc(Cl)c2)c1` [Example 273, (1-{[5-(3-Chlorophenyl)-6-(difluoromethoxy)pyridin-3-yl]methyl}-1H-imidazol-5-yl)methanol], the concentration giving a half-maximal response (EC50) was in the range of 1000 to 10000 nM.

Molecule `CNc1ncc(Cc2cnc(OC)c(-c3cccc(Cl)c3)c2)cn1` [Example 81, 5-{[5-(3-Chlorophenyl)-6-methoxypyridin-3-yl]methyl}-N-methylpyrimidin-2-amine] gave an EC50 of 100 to 1000 nM.

On to `COc1ncc(Cc2cnc(NC(C)C)nc2)cc1-c1cccc(Cl)c1` [Example 77, 5-{[5-(3-Chlorophenyl)-6-methoxypyridin-3-yl]methyl}-N-(propan-2-yl)pyrimidin-2-amine], for which the EC50 is 1000 to 10000 nM.

`COc1ncc(Cc2ccc(NC(N)=O)cc2)cc1-c1cccc(Cl)c1` [Example 26, (4-{[5-(3-Chlorophenyl)-6-methoxypyridin-3-yl]methyl}phenyl)urea] returned an EC50 of 100 to 1000 nM.

With `COc1ncc(Cc2cnc(N(C)C)nc2)cc1-c1cccc(Cl)c1` [Example 83, 5-{[5-(3-Chlorophenyl)-6-methoxypyridin-3-yl]methyl}-N,N-dimethylpyrimidin-2-amine], the EC50 lay within 100 to 1000 nM.

Regarding `CC(C)Oc1ncc(Cn2cncn2)cc1-c1cccc(Cl)c1` [Example 135, 3-(3-Chlorophenyl)-2-(propan-2-yloxy)-5-(1H-1,2,4-triazol-1-ylmethyl)pyridine], the concentration for a half-maximal effect (EC50) is 1000 to 10000 nM.

Molecule `COCc1ncnn1Cc1cnc(OC(F)F)c(-c2cccc(Cl)c2)c1` [Example 158, 3-(3-Chlorophenyl)-2-(difluoromethoxy)-5-{[5-(methoxymethyl)-1H-1,2,4-triazol-1-yl]methyl}pyridine] gave an EC50 of 1000 to 10000 nM.

In turn, `COc1ncc(Cn2cnc(C)n2)cc1-c1cccc(F)c1` [Example 151, 3-(3-Fluorophenyl)-2-methoxy-5-[(3-methyl-1H-1,2,4-triazol-1-yl)methyl]pyridine] showed an EC50 of less than 100 nM.

For `CCOc1ncc(Cn2cnc(C)n2)nc1-c1cccc(OC(F)F)c1` [Example 185, 3-[3-(Difluoromethoxy)phenyl]-2-ethoxy-5-[(3-methyl-1H-1,2,4-triazol-1-yl)methyl]pyrazine], the EC50 was less than 100 nM.

For `COc1ncc(Cn2cncn2)cc1-c1ccnc(C)c1` [Example 7, 2-Methoxy-3-(2-methylpyridin-4-yl)-5-(1H-1,2,4-triazol-1-ylmethyl)pyridine], the half-maximal effective concentration (EC50) is 100 to 1000 nM.

`CCOc1ncc(Cn2cnc(CO)n2)cc1-c1cccc(Cl)c1` [Example 203, (1-((5-(3-Chlorophenyl)-6-ethoxypyridin-3-yl)methyl)-1H-1,2,4-triazol-3-yl)methanol] gave an EC50 of less than 100 nM.

Molecule `COc1ncc(Cc2cccnc2)cc1-c1cccc(Cl)c1` [Example 64, 3-(3-Chlorophenyl)-2-methoxy-5-(pyridin-3-ylmethyl)pyridine] had an EC50 of 100 to 1000 nM.

As to `COc1ncc(Cn2cnc(C(C)(C)O)n2)cc1-c1cccc(Cl)c1` [Example 247, 2-(1-{[5-(3-Chlorophenyl)-6-methoxypyridin-3-yl]methyl}-1H-1,2,4-triazol-3-yl)propan-2-ol], the EC50 was 1000 to 10000 nM.

Turning to `CCOc1ncc(Cn2ncnc2CO)nc1-c1cccc(OC(F)F)c1` [Example 209, [1-({6-[3-(Difluoromethoxy)phenyl]-5-ethoxypyrazin-2-yl}methyl)-1H-1,2,4-triazol-5-yl]methanol], the EC50 lay within 1000 to 10000 nM.

On to `COc1ncc(Cn2cncn2)cc1-c1cnn(C)c1` [Example 248, 2-Methoxy-3-(1-methyl-1H-pyrazol-4-yl)-5-(1H-1,2,4-triazol-1-ylmethyl)pyridine], for which the concentration giving a half-maximal response (EC50) was in the range of 1000 to 10000 nM.

Turning to `COc1ncc(Cn2cnc(N)n2)cc1-c1cccc(OC(F)F)c1` [Example 217, 1-({5-[3-(Difluoromethoxy)phenyl]-6-methoxypyridin-3-yl}methyl)-1H-1,2,4-triazol-3-amine], the EC50 is less than 100 nM.

Molecule `COc1ncc(Cn2cnc(N)n2)cc1-c1ccnc(OC(F)F)c1` [Example 229, 1-({5-[2-(Difluoromethoxy)pyridin-4-yl]-6-methoxypyridin-3-yl}methyl)-1H-1,2,4-triazol-3-amine] had an EC50 of less than 100 nM.

As for `N#Cc1ncc(Cc2cnc(OC(F)F)c(-c3cccc(Cl)c3)c2)cn1` [Example 35, 5-{[5-(3-Chlorophenyl)-6-(difluoromethoxy)pyridin-3-yl]methyl}pyrimidine-2-carbonitrile], the EC50 lay in the range of 1000 to 10000 nM.

`COC(=O)c1ccc(Cc2cnc(OC)c(-c3cccc(Cl)c3)n2)cc1` [Example 85, Methyl 4-{[6-(3-chlorophenyl)-5-methoxypyrazin-2-yl]methyl}benzoate]: the 50% effective concentration (EC50) was in the range of 100 to 1000 nM.

As for `Cc1ncn(Cc2cnc(OC(F)F)c(-c3cccc(Cl)c3)c2)n1` [Example 148, 3-(3-Chlorophenyl)-2-(difluoromethoxy)-5-[(3-methyl-1H-1,2,4-triazol-1-yl)methyl]pyridine], the EC50 is less than 100 nM.

The molecule `COc1ncc(Cn2cncn2)nc1-c1cccc(Cl)c1` [Example 130, 3-(3-Chlorophenyl)-2-methoxy-5-(1H-1,2,4-triazol-1-ylmethyl)pyrazine] had an EC50 of 100 to 1000 nM.

On to `COc1ncc(C(N)c2ccc(F)cc2)cc1-c1cccc(Cl)c1` (stereo not drawn) [Example 18, [5-(3-Chlorophenyl)-6-methoxypyridin-3-yl](4-fluorophenyl)methanamine], for which the EC50 lay within 1000 to 10000 nM.

The molecule `COc1ncc(Cc2cnc(C#N)nc2)cc1-c1cccc(F)c1` [Example 39, 5-{[5-(3-Fluorophenyl)-6-methoxypyridin-3-yl]methyl}pyrimidine-2-carbonitrile] gave a 50% effective concentration (EC50) of 1000 to 10000 nM.
